The text below walks through data of patent US7727952B2, “Methods for treating spinal and bulbar muscular atrophy using LHRH analogs” (priority 2002, dated 2010).

“Also recorded” adds a separate entry of the source.

For data set [1], the system named is female AR-97Q mice. The experiment in a line: Administration of testosterone to female AR-97Q mice: symptoms (body weight, rotarod task, cage activity, survival rate, body size, foot prints). The class given is in vivo, mouse. The method, then: We analyzed rotarod task of mice by an Economex Rotarod (Colombus Instruments, USA) weekly during the light phase of the 12 h light/12 h dark cycle as described previously (Adachi et al., 2001). We performed three trials, and recorded the longest duration on the rod for every mouse. We stopped the timer when the mouse fell from the rod or after an arbitrary limit of 180 seconds.
We measured cage activity while each mouse was in a transparent acrylic cage (16×30×14 cm). We used an AB system (Neuroscience, Japan) with an infrared ray sensor monitor to measure spontaneous motor activity. We automatically totaled and recorded all measurements for 24 hours per week at 10-min intervals.
Male AR-97Q mice and their normal littermates were castrated or sham-operated via the abdominal route under ketamine-xylazine anesthesia (50 mg/kg ketamine and 10 mg/kg xylazine, i.p.) at 4 weeks of age. […] The control mice were given the same amount of sesame oil.
For orientation: In the rotarod test animals must keep their balance on a rotating rod.

Data set [2] is described as follows: Serum testosterone radioimmunoassay in testosterone-administered female AR-97Q mice. In kind it is in vivo, mouse. Conditions: testosterone-administered female 97Q mice, control mice undetectable low level.
The test system of data set [3] is male AR-97Q mice. The experiment in a line: Administration of Leuprorelin to male AR-97Q mice: symptoms (body weight, rotarod task, cage activity, survival rate, body size, foot prints). The class given is in vivo, mouse. The method, then:
We analyzed rotarod task of mice by an Economex Rotarod (Colombus Instruments, USA) weekly during the light phase of the 12 h light/12 h dark cycle as described previously (Adachi et al., 2001). We performed three trials, and recorded the longest duration on the rod for every mouse. We stopped the timer when the mouse fell from the rod or after an arbitrary limit of 180 seconds. We measured cage activity while each mouse was in a transparent acrylic cage (16×30×14 cm). We used an AB system (Neuroscience, Japan) with an infrared ray sensor monitor to measure spontaneous motor activity. We automatically totaled and recorded all measurements for 24 hours per week at 10-min intervals. […] Leuprorelin was administrated as follows. 100 μg of Leuprorelin acetate was suspended in a solution containing D-mannitol, which was subcutaneously injected to the mice every two weeks from five weeks of age until the end of the analysis. To the control group, only suspension was administrated. […] That is to say, motor impairment assessed by rotarod and cage activity was far milder in the Leuprorelin-administrated male AR-97Q mice as compared with the control group, and motor dysfunction was hardly shown in the Leuprorelin-administrated group (FIGS. 5A, B, C and D).

The nature of data set [4]: Serum testosterone radioimmunoassay in Leuprorelin-administered male AR-97Q mice. The class given is in vivo, mouse. The note with it: #4-6, n=4. The method, then: Leuprorelin was administrated as follows. 100 μg of Leuprorelin acetate was suspended in a solution containing D-mannitol, which was subcutaneously injected to the mice every two weeks from five weeks of age until the end of the analysis. To the control group, only suspension was administrated. […] That is to say, motor impairment assessed by rotarod and cage activity was far milder in the Leuprorelin-administrated male AR-97Q mice as compared with the control group, and motor dysfunction was hardly shown in the Leuprorelin-administrated group (FIGS. 5A, B, C and D).

For data set [5] the following is noted: The Leuproride Study Group 1984; cited from earlier work.

Regarding `CCCCCCC(=O)O[C@H]1CC[C@H]2[C@@H]3CCC4=CC(=O)CC[C@]4(C)[C@H]3CC[C@]12C` [testosterone, testosterone enanthate], the body weight result in data set [1] (FIG. 6A, #7-8, testosterone-administered group vs testosterone-administered normal mice or control (oil) group, p<0.0001) is recorded as “significant difference”. Moreover, the rotarod task entry in data set [1] (FIG. 6B, #7-8, testosterone-administered group vs testosterone-administered normal mice or control (oil) group, p<0.0001) was “significant difference”. In addition, the cage activity result in data set [1] (FIG. 6C, #2-6, testosterone-administered group vs testosterone-administered normal mice or control (oil) group, p<0.0001) was “significant difference”. Also, the survival rate entry in data set [1] (FIG. 6D, #7-8, testosterone-administered group vs testosterone-administered normal mice or control (oil) group, p<0.0001) is given as “significant difference”. The “symptoms, pathologic findings and nuclear localization of the mutant protein” value in data set [1] (female AR-97Q mice, 20 μg testosterone enanthate s.c. weekly from 4 weeks of age, vs sesame-oil control group) is listed as “drastically exacerbated”. For the same molecule, the weight loss result in data set [1] (female AR-97Q mice, FIG. 6A, control group hardly showed weight loss) is reported as “significant weight loss”. For the same molecule, in data set [1] (female AR-97Q mice, FIG. 6D), the life-span entry is recorded as “affected”. The “muscle atrophy and body size” value in data set [1] (female AR-97Q mice, FIG. 6E, #2-6, 14-week-old) was “marked muscle atrophy and reduction in body size; also recorded: severe muscular atrophy”. For the same molecule, the foot print analysis result in data set [1] (female AR-97Q mice, FIG. 6F, not detected in sesame oil-administered mice) is “exhibited motor weakness and dragged their hind legs”. In addition, the “motor impairment assessed by rotarod and cage activity” value in data set [1] (female AR-97Q mice, compared with control mice, FIGS. 6B and C) is reported as “significantly worsened”. The serum testosterone levels in data set [2] (line #2-6, n=3) is 158.0 ± 70.7 ng/dL; in data set [2] (line #7-8, n=4), 305.3 ± 182.3 ng/dL.
`CCNC(=O)[C@@H]1CCCN1C(=O)[C@H](CCCNC(=N)N)NC(=O)[C@H](CC(C)C)NC(=O)[C@@H](CC(C)C)NC(=O)[C@H](Cc1ccc(O)cc1)NC(=O)[C@H](CO)NC(=O)[C@H](Cc1c[nH]c2ccccc12)NC(=O)[C@H](Cc1c[nH]cn1)NC(=O)[C@@H]1CCC(=O)N1` [Leuprorelin]: in data set [3] (FIG. 5B, #7-8, Leuprorelin-administered group vs control (vehicle) group, n=6), the rotarod task entry was “significant difference”. In addition, the cage activity result in data set [3] (FIG. 5C, #7-8, Leuprorelin-administered group vs control (vehicle) group, n=6) is reported as “significant difference”. Besides, the body size entry in data set [3] (FIG. 5E, #4-6, 12-week-old, control group showed severe muscular atrophy) is “normal”. Further, in data set [3] (male AR-97Q mice, 100 μg Leuprorelin acetate s.c. every two weeks from five weeks of age, vs control group (suspension only)), the symptoms result was “remarkable improvement”. The motor dysfunction result in data set [3] (male AR-97Q mice, 100 μg s.c. every two weeks) was “hardly shown”. In addition, the “motor impairment assessed by rotarod and cage activity” value in data set [3] (male AR-97Q mice, 100 μg s.c. every two weeks, compared with the control group) is on record as “far milder”. Further, in data set [3] (male AR-97Q mice, FIG. 5E, #4-6, 12-week-old), the “reduction in body size” value is on record as “remarkably improved”. For the same molecule, in data set [3] (male AR-97Q mice, FIG. 5F, #4-6, 12-week-old), the “motor weakness (foot prints)” value is given as “improved”. In addition, the serum testosterone value result in data set [4] is “undetectable low level”. Also, the “effect of inhibiting the secretion of testosterone, relative to castration” value in data set [5] is given as “same level”.
